Patent US9228178B2, “Engineering of xylose reductase and overexpression of xylitol dehydrogenase and xylulokinase improves xylose alcoholic fermentation in the thermotolerant yeast Hansenula polymorpha” (Archer Daniels Midland Co., priority 2008, dated 2016)
Where a chain is given by its changes, count along the chain named. In names and notes the source's numbering stands.

Tests used:
[1] = biological target: T1, Hansenula polymorpha xylose reductase (XR) variant XRm, K341R N343D, cofactor binding site SEQ ID NO: 2 (Ogataea polymorpha, UniProt A0A1B7SLF1, K271R/N273D); test: KM towards NADPH or NADH of engineered xylose reductase (XRm), spectrophotometric XR assay in cell extract; details: XRm vs native XR
T1 sequence (A0A1B7SLF1 with tags, fused parts or gaps K271R/N273D): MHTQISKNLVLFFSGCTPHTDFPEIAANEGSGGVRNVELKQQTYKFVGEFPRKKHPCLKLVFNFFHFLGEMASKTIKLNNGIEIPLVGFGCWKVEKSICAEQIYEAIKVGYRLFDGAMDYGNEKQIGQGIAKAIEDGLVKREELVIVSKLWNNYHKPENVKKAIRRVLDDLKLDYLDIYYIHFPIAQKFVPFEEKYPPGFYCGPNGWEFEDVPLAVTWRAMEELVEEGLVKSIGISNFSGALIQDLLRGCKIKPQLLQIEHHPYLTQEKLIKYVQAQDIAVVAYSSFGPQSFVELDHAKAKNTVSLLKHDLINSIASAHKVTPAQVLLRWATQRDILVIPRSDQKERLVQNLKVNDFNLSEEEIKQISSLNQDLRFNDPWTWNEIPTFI
Procedure: The XR activity in cell extracts was determined spectrophotometrically at 37° C. […] The reaction was started with cell extract addition.
Biochemical properties of XR in one of constructed recombinant strains (designated XRm) were studied.

[2] = biological target: T2, Hansenula polymorpha xylose reductase (XR), native (XRn), cofactor binding site SEQ ID NO: 1 (Ogataea polymorpha, UniProt A0A1B7SLF1); test: KM towards NADPH or NADH of native xylose reductase (XRn), spectrophotometric XR assay in cell extract; format: biochemical; details: dual cofactor specificity
T2 construct: native XYL1 ORF from CBS4732 genomic DNA, HpGAP promoter (pX1N-Z), overexpressed in H. polymorpha Δxyl1; cell extract
T2 sequence (A0A1B7SLF1 with tags, fused parts or gaps): T1 sequence (A0A1B7SLF1 with tags, fused parts or gaps K271R/N273D) with R341K, D343N
Procedure: (§1) The XR activity in cell extracts was determined spectrophotometrically at 37° C. […] The reaction was started with cell extract addition [3].

[3] = substrate: NC(=O)C1=CN([C@@H]2O[C@H](COP(=O)(O)OP(=O)(O)OC[C@H]3O[C@@H](n4cnc5c(N)ncnc54)[C@H](OP(=O)(O)O)[C@@H]3O)[C@@H](O)[C@H]2O)C=CC1; test: cells, lysate or membranes; details: xylose as substrate, 37° C., pH 7.0, xylose 350 mM, NADPH 20-150 μM
[4] = substrate: NC(=O)C1=CN([C@@H]2O[C@H](COP(=O)(O)OP(=O)(O)OC[C@H]3O[C@@H](n4cnc5c(N)ncnc54)[C@H](O)[C@@H]3O)[C@@H](O)[C@H]2O)C=CC1; test: cells, lysate or membranes; details: other: XRm, 37° C., pH 7.0, xylose 350 mM, NADH 20-150 μM
Procedure: as §1

NC(=O)C1=CN([C@@H]2O[C@H](COP(=O)(O)OP(=O)(O)OC[C@H]3O[C@@H](n4cnc5c(N)ncnc54)[C@H](O)[C@@H]3O)[C@@H](O)[C@H]2O)C=CC1 [NADH]
KM for NADH, compared with native XR (in words) [1]: remained nearly unchanged

NC(=O)C1=CN([C@@H]2O[C@H](COP(=O)(O)OP(=O)(O)OC[C@H]3O[C@@H](n4cnc5c(N)ncnc54)[C@H](OP(=O)(O)O)[C@@H]3O)[C@@H](O)[C@H]2O)C=CC1 [NADPH]
cofactor preference for NADPH (over NADH) [2]: > 10 fold | KM for NADPH, change against native XR (in words) [1]: significant increase | KM for NADPH, times higher than the KM for NADPH of the native XR ([1]; xylose as substrate): 17 times

B1: Hansenula polymorpha xylose reductase (XR) variant XRm, K341R N343D, cofactor binding site SEQ ID NO: 2 (Ogataea polymorpha; K271R/N273D) (protein)
chain: T1 sequence (A0A1B7SLF1 with tags, fused parts or gaps K271R/N273D)
Km ([3]; other: XRm): 152 µM | Km [4]: 112 µM

B2: Hansenula polymorpha xylose reductase (XR), native (XRn), cofactor binding site SEQ ID NO: 1 (Ogataea polymorpha) (protein)
chain: T1 sequence (A0A1B7SLF1 with tags, fused parts or gaps K271R/N273D) with R341K, D343N
Km ([3]; other: native XR): 9 µM
